According to the supplement of paper PMC10949913:

Tests used:
Conditions in all cases: 48 h
CU-ACC1 [1] = test: AC50 viability; higher = less potent
How it was run: (§1)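 Library compounds were tested at 11 concentrations against three adrenocortical carcinoma cell lines in 1,536-well plates. CellTiter-Glo luminescence was read after 48 h and normalised per plate to vehicle and empty-well controls. Only inhibitory or non-responding curve classes from fitted concentration-response curves contributed AC50 and area under the curve.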

CU-ACC2 [2] = test: AC50 viability; higher = less potent
How it was run: as §1

NCI-H295R [3] = test: AC50 viability; higher = less potent
How it was run: as §1

CU-ACC1 [4] = test: area under concentration-response curve (viability) (AUC (a.u.)); higher = less active
How it was run: as §1

CU-ACC2 [5] = test: as above
How it was run: as §1

NCI-H295R [6] = test: as above
How it was run: as §1

Row | Structure (SMILES) | AC50 viability (CU-ACC1 [1]) | AC50 viability (CU-ACC2 [2]) | AC50 viability (NCI-H295R [3]) | area under concentration-response curve (CU-ACC1 [4]) | area under concentration-response curve (CU-ACC2 [5]) | area under concentration-response curve (NCI-H295R [6])
1 | COc1cccc2c1C(=O)c1c(O)c3c(c(O)c1C2=O)C[C@@](O)(C(C)=O)C[C@@H]3O[C@H]1C[C@H](N)[C@H](O)[C@H](C)O1 | 2.95 µM | 2.35 µM | 4.68 µM | 305 | 350 | 369
2 | Cc1cc(I)ccc1Nc1c(C(=O)NOCC2CC2)cc(F)c(F)c1F | 16.6 µM | 18.6 µM | 8.33 µM | 445 | 554 | 490
3 | C1CCC(C(CC2CCCCN2)C2CCCCC2)CC1 (stereo unspecified) | 8.33 µM | 11.8 µM | 9.34 µM | 398 | 460 | 414
4 | OCCCNc1cc(-c2ccnc(Nc3cccc(Cl)c3)n2)ccn1 | 0.148 µM | 0.0934 µM | 0.263 µM | 275 | 307 | 339
5 | COc1ccc(-c2cc3c(C)nc(N)nc3n([C@H]3CC[C@H](OCCO)CC3)c2=O)cn1 | 0.295 µM | 0.59 µM | 0.235 µM | 425 | 446 | 435
6 | CC[C@@]1(O)C(=O)OC/C2=C1/C=C3\N(CC4=C5[C@@H](N)CCC6=C5C(=CC(=C6C)F)N=C34)C2=O | 2.09 µM | 2.35 µM | 3.72 µM | 388 | 486 | 437
7 | CN(C)C/C=C/C(=O)Nc1cc2c(Nc3ccc(F)c(Cl)c3)ncnc2cc1O[C@H]1CCOC1 | 4.68 µM | 0.661 µM | 1.32 µM | 231 | 238 | 232
8 | COc1cccc2cc(-c3nc([C@H]4CC[C@H](C(=O)O)CC4)n4ncnc(N)c34)[nH]c12 | 4.17 µM | 10.5 µM | 5.9 µM | 454 | 466 | 492
9 | CC(=O)c1cc2c(o1)C(=O)c1ccccc1C2=O | 0.263 µM | 1.66 µM | 0.934 µM | 270 | 377 | 351
10 | CC(N[C@H]1CCCC[C@@H]1NC(=O)c1ccc(Cl)cc1)c1cccc2ccccc12 (stereo partly specified) | 33.2 µM | 23.5 µM | 18.6 µM | 432 | 550 | 422
11 | CCc1cnn2c(NCc3ccc[n+]([O-])c3)cc(N3CCCC[C@H]3CCO)nc12 | 0.00263 µM | 0.0059 µM | 0.00417 µM | 177 | 167 | 158
12 | CC(C)C[C@@H](C=O)NC(=O)[C@H](CC(C)C)NC(=O)[C@H](CC(C)C)NC(=O)OCc1ccccc1 | 1.48 µM | 0.934 µM | 0.742 µM | 374 | 409 | 407
13 | C=CC(=O)Nc1ccc2ncnc(Nc3ccc(OCc4cccc(F)c4)c(Cl)c3)c2c1 | 20.9 µM | 10.5 µM | 10.5 µM | 334 | 534 | 510
14 | CN1CC[C@H]([C@@H](O)C1)C2=C(O)C=C(O)C3=C2O\C(=C/C3=O)C4=CC=CC=C4Cl | 0.833 µM | 0.417 µM | 1.32 µM | 346 | 392 | 352
15 | NCCCC[C@H](NC(=O)[C@@H](NC(=O)[C@H](Cc1c[nH]c2ccccc12)NC(=O)[C@H](CCCCN)NC(=O)[C@H](CCCCN)NC(=O)[C@H](Cc1c[nH]c2ccccc12)NC(=O)[C@H](Cc1c[nH]c2ccccc12)NC(=O)[C@H](CCCCN)NC(=O)[C@@H](N)CCCCN)C(c1ccccc1)c1ccccc1)C(N)=O | 10.5 µM | 3.72 µM | 9.34 µM | 301 | 301 | 310
16 | COc1cc2nccc(Oc3ccc(NC(=O)Nc4cc(C)on4)c(Cl)c3)c2cc1OC | 14.8 µM | 29.5 µM | 14.8 µM | 422 | 516 | 415
17 | CN1CCN(c2cc(C(=O)Nc3ccc4c(c3)-c3c(c(C(N)=O)nn3-c3ccc(F)cc3)CC4)c(Cl)cn2)CC1 | 9.34 µM | 20.9 µM | 10.5 µM | 427 | 521 | 480
18 | CCN1CCN(Cc2ccc(-c3cc4c(N[C@H](C)c5ccccc5)ncnc4[nH]3)cc2)CC1 | 23.5 µM | 23.5 µM | 18.6 µM | 452 | 534 | 492
19 | CNCCCOc1cc(F)c(-c2c(Cl)nc3ncnn3c2N[C@@H](C)C(F)(F)F)c(F)c1 | 5.25 µM | 10.5 µM | 0.148 µM | 456 | 403 | 397
20 | CCC1=C2C=C(OC(=O)N3CCC(CC3)N4CCCCC4)C=CC2=NC\5=C1CN6C(=O)\C7=C(/C=C56)[C@@](O)(CC)C(=O)OC7 | 13.2 µM | 2.95 µM | 13.2 µM | 382 | 426 | 443
21 | Cc1ccc(NC(=O)NCc2ccc3c(c2)CN(C2CCC(=O)NC2=O)C3=O)cc1Cl (stereo unspecified) | 0.00372 µM | 0.0332 µM | 0.0166 µM | 137 | 289 | 234
22 | CN1CCN(Cc2ccc(NC(=O)Nc3ccc(Oc4cc(NC(=O)C5CC5)ncn4)cc3)cc2C(F)(F)F)CC1 | 1.66 µM | 0.468 µM | 2.63 µM | 426 | 337 | 428
23 | O=C(NC1CCNCC1)c1n[nH]cc1NC(=O)c1c(Cl)cccc1Cl | 9.34 µM | 3.32 µM | 16.6 µM | 464 | 512 | 542
24 | C[C@@H]1CN(CC(=O)N2CC(C)(C)c3ncc(Cc4ccc(F)cc4)cc32)[C@@H](CN2CCOC[C@H]2C)CN1 | 18.6 µM | 1.32 µM | 20.9 µM | 449 | 451 | 462
25 | CC[C@H]1CN2CCc3cc(OC)c(OC)cc3[C@@H]2C[C@@H]1C[C@H]1NCCc2cc(OC)c(OC)cc21 | 0.59 µM | 0.934 µM | 1.66 µM | 366 | 463 | 412
26 | CC1(C)CC(=O)c2c(C(F)(F)F)nn(-c3ccc(C(N)=O)c(NC4CCC(OC(=O)CN)CC4)c3)c2C1 (stereo unspecified) | 1.05 µM | 0.417 µM | 1.05 µM | 362 | 426 | 431

Row | Structure (SMILES) | AC50 viability (CU-ACC1 [1]) | AC50 viability (CU-ACC2 [2]) | AC50 viability (NCI-H295R [3]) | area under concentration-response curve (CU-ACC1 [4]) | area under concentration-response curve (CU-ACC2 [5]) | area under concentration-response curve (NCI-H295R [6])
27 | CC/1=C(\O)C(=O)\C=C2/C1=C\C=C3/[C@@]2(C)CC[C@@]4(C)[C@@H]5C[C@@](C)(CC[C@]5(C)CC[C@]34C)C(O)=O | 13.2 µM | 6.61 µM | 23.5 µM | 474 | 515 | 447
28 | COc1cc2c(Nc3ccc(Cl)c(Cl)c3F)ncnc2cc1OC[C@@H]1C[C@@H]2CN(C)C[C@@H]2C1 | 16.6 µM | 10.5 µM | 16.6 µM | 397 | 515 | 483
29 | CCc1cc(C(N)=O)ccc1-n1nc(C(C)C)c2c(-n3cnc(-c4cnn(C)c4)c3)ccnc21 | 13.2 µM | 6.61 µM | 9.34 µM | 350 | 543 | 528
30 | CN[C@@H]1C[C@H]2O[C@@](C)([C@@H]1OC)n1c3ccccc3c3c4c(c5c6ccccc6n2c5c31)C(=O)N[C@H]4O | 0.762 µM | 0.34 µM | 0.959 µM | 301 | 209 | 269
31 | CCN1CCN(Cc2ccc(Nc3ncc(F)c(-c4cc(F)c5nc(C)n(C(C)C)c5c4)n3)nc2)CC1 | 18.6 µM | 8.33 µM | 18.6 µM | 463 | 362 | 480
32 | CO[C@@H](C)Cn1c(=O)n(C)c2cnc3ccc(-c4cncc(C(C)(C)O)c4)cc3c21 | 0.742 µM | 0.661 µM | 1.05 µM | 398 | 419 | 445
33 | Cc1ccc(NC(=O)Nc2cc(C(F)(F)F)ccc2F)cc1Nc1ccc2c(c1)NC(=O)/C2=C\c1ccc[nH]1 | 14.8 µM | 23.5 µM | 13.2 µM | 441 | 506 | 476
34 | Fc1cccc(-n2cnc3c(NCc4nc5ccc(F)c(F)c5[nH]4)nc(N4CCOCC4)nc32)c1 | 0.661 µM | 0.742 µM | 1.05 µM | 367 | 371 | 394
35 | Oc1ccc(-c2ccc(-c3cc(Nc4cccc(CNC5CC5)c4)[nH]n3)cc2)c(O)c1 | 14.8 µM | 10.5 µM | 18.6 µM | 498 | 556 | 531
36 | CC[S+](=O)([O-])c1cccc(-c2cc(C(=O)NC3CCN(C)CC3)c(C)c3[nH]c4ncc(C)cc4c23)c1 | 37.2 µM | 10.5 µM | 20.9 µM | 500 | 543 | 545
37 | CCN1C(=O)\C(=C/C2=C(C)N=C(N)N=C12)C3=CC=N[NH]3 | 4.17 µM | 3.32 µM | 5.25 µM | 397 | 455 | 431
38 | C[N]1N=C(C)C2=C1OC(=C(/C#N)C2C3=CC=C(C=C3)C(F)(F)F)/N (stereo unspecified) | 18.6 µM | 18.6 µM | 18.6 µM | 460 | 422 | 479
39 | Cc1cc(Nc2cc(CN3CCOCC3)c3nc(C)c(Cc4ccc(Cl)cc4F)n3n2)[nH]n1 | 37.2 µM | 18.6 µM | 23.5 µM | 440 | 439 | 420
40 | Cc1cc2c(C(N)=O)cccc2n1-c1nc2c(c(NCc3ccccc3)n1)COCC2 | 3.32 µM | 2.09 µM | 2.63 µM | 306 | 467 | 436
41 | CC(C)C[C@H](NC(=O)[C@H](CCc1ccccc1)NC(=O)CN1CCOCC1)C(=O)N[C@@H](Cc1ccccc1)C(=O)N[C@@H](CC(C)C)C(=O)[C@@]1(C)CO1 | 0.186 µM | 0.0235 µM | 0.166 µM | 302 | 256 | 359
42 | N[S+]([O-])(=O)C1=CC=C(NC/2=C/C(=O)C3=CC=CC=C3C2=O)C=C1 | 0.59 µM | 13.2 µM | 2.35 µM | 290 | 463 | 403
43 | Nc1ncccc1-c1nc2ccc(-c3ccccc3)nc2n1-c1ccc(C2(N)CCC2)cc1 | 8.33 µM | 16.6 µM | 5.9 µM | 354 | 437 | 408
44 | CN(c1ncccc1CNc1nc(Nc2ccc3c(c2)CC(=O)N3)ncc1C(F)(F)F)[S+](C)(=O)[O-] | 13.2 µM | 6.61 µM | 14.8 µM | 404 | 422 | 430
45 | CNc1nc(-c2ccc3c(N)n[nH]c3c2)cc(N2C[C@@H](C(=O)NC3CCCCC3)CC[C@H]2C)n1 | 20.9 µM | 20.9 µM | 18.6 µM | 458 | 544 | 506
46 | NC(=O)/C(=C/n1cnc(-c2cc(C(F)(F)F)cc(C(F)(F)F)c2)n1)c1cncnc1 | 11.8 µM | 5.9 µM | 9.34 µM | 322 | 459 | 438
47 | CC[C@@]1(O)C(=O)OC\C2=C1\C=C\3N(CC4=C3N=C5C=CC=CC5=C4)C2=O | 1.66 µM | 0.742 µM | 1.48 µM | 363 | 424 | 443
48 | O[C@H]1CC[C@@H](Oc2cccc3cnc(Nc4ccc5nc[nH]c5c4)nc23)CC1 | 1.66 µM | 1.32 µM | 2.63 µM | 403 | 331 | 409
49 | CCCc1cc(C(=O)N[C@H](Cc2ccc(-c3cccc(OC(F)(F)F)c3)nc2)C(=O)N[C@@H]2CCNC2)sc1C | 13.2 µM | 18.6 µM | 18.6 µM | 452 | 447 | 469
50 | C[C@H](NC(=O)/C(C#N)=C/c1cccc(Br)n1)c1ccccc1 | 20.9 µM | 23.5 µM | 23.5 µM | 444 | 526 | 442
51 | C=CC(=O)Nc1cccc(Oc2nc(Nc3ccc(N4CCN(C)CC4)cc3)nc3ccsc23)c1 | 5.9 µM | 8.33 µM | 5.9 µM | 277 | 330 | 337
